Test systems include SF-295 CNS; MDA-MB-435; SNB-19 CNS; HOP-92 NSCLC; MDA-MB-231 breast; U251 CNS; NCI-H460 lung; NCI-H522 lung; A549 NSCLC; OVCAR-3 ovarian; UO-31 renal; SNB-75 CNS; HOP-62 NSCLC; SW-620 colon; SK-MEL-2 melanoma; UACC-257 melanoma; RPMI-8226 leukemia; SF-539 CNS; CCRF-CEM leukemia; EKVX NSCLC.
Holding throughout (experiment): DTP human tumour cell line panel, 48 h

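Grown in 96-well plates, cells were treated for 48 hours with each compound at five concentrations. Insufficient inhibition: endpoint recorded as highest concentration tested. The concentration for full growth arrest is given as TGI.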 Some results are limits rather than exact numbers.

Usually TGI stands for the concentration giving total growth inhibition. High values mean lower sensitivity of the cells, low ones greater sensitivity of the cells. Consider `CSCCC(NC(=O)OCc1ccccc1)NC(=O)OCc1ccccc1`, for which the concentration for total growth inhibition (TGI) in the experiment on SF-295 CNS, in the experiment with MDA-MB-435, in the experiment with SNB-19 CNS, in the experiment on HOP-92 NSCLC, in the experiment on MDA-MB-231 breast and with U251 CNS was above 100 µM in each case. In addition, the TGI in the experiment on NCI-H460 lung, in the experiment on NCI-H522 lung, with A549 NSCLC, in the experiment with OVCAR-3 ovarian, in the experiment with UO-31 renal and in the experiment with SNB-75 CNS was above 100 µM in each case. Also, the total growth inhibition concentration (TGI) in the experiment with HOP-62 NSCLC, with SW-620 colon, with SK-MEL-2 melanoma, in the experiment on UACC-257 melanoma and with RPMI-8226 leukemia was above 100 µM throughout.
In the case of `NC1(C(=O)O)CCCC1`, the TGI in the experiment with SF-295 CNS was above 625 µM; in the experiment with SNB-19 CNS it was above 99.1 µM; with HOP-92 NSCLC, above 625 µM; with U251 CNS, above 625 µM; in the experiment on NCI-H460 lung it was above 625 µM; in the experiment with NCI-H522 lung it was above 625 µM. The TGI was above 625 µM in the experiment with A549 NSCLC; above 62.5 µM with OVCAR-3 ovarian; above 625 µM in the experiment with UO-31 renal; above 625 µM in the experiment with SNB-75 CNS; above 625 µM with HOP-62 NSCLC; above 625 µM with SF-539 CNS. The TGI in the experiment with SW-620 colon, in the experiment with SK-MEL-2 melanoma, in the experiment with UACC-257 melanoma, in the experiment on RPMI-8226 leukemia, in the experiment on CCRF-CEM leukemia and in the experiment with EKVX NSCLC was above 625 µM each time.

(Values after PubChem BioAssay (NCI).)
